From US4450269A, “Mono-5-substituted-3-chloro-4H-1,2,6-thiadiazin-4-one antifungal agents” (FMC Corporation, priority 1980, dated 1984)

How the values were obtained:
Erysiphe polygoni = assay: Spore germination test; type: cell-based; details: EP, 48 hours
In short: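 Compound was delivered in acetone into water agar at final 40, 10, 2.5 and 1 ppm. Alternaria solani and Botrytis cinerea spores were applied as sterile-water suspensions, while Erysiphe polygoni and Uromyces phaseoli spores were brushed on from infected leaves. After 48 h at 24° C., percentage germination was converted to a rating.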

Alternaria solani = assay: Mycelial growth test; type: cell-based; details: Alternaria solani, 72 h, AS, read-out: Percent Fungus Growth Inhibition

Row | Compound | Spore Germination Rating (Erysiphe polygoni; 1.0 ppm) | Spore Germination Rating (Erysiphe polygoni; 2.5 ppm) | Spore Germination Rating (Erysiphe polygoni; 10 ppm) | Spore Germination Rating (Erysiphe polygoni; 40 ppm) | inhibition at 5 ppm (Alternaria solani) | inhibition at 10 ppm (Alternaria solani) | inhibition at 20 ppm (Alternaria solani) | inhibition at 40 ppm (Alternaria solani)
1 | O=c1c(Cl)nsnc1Oc1ccc(F)cc1 [Compound 11, 3-chloro-5-(4-fluorophenoxy)-4H--1,2,6-thiadiazin-4-one] | 0 (0-10) | 0 (0-10) | 0 (0-10) | 0 (0-10) | 63% | 83% | 100% | 100%
2 | CC(=O)c1cccc(Oc2nsnc(Cl)c2=O)c1 [Compound 48, 3-(3-acetylphenoxy)-5-chloro-4H--1,2,6-thiadiazin-4-one] | 4 (80-100) | 4 (80-100) | 2 (40-60) | 2 (40-60) | 88% | 92% | 100% | 100%
3 | Cc1cc(Cl)ccc1Oc1nsnc(Cl)c1=O [Compound 55, 3-chloro-5-(4-chloro-2-methylphenoxy)-4H--1,2,6-thiadiazin-4-one] | 1 (10-40) | 0 (0-10) | 0 (0-10) | 1 (10-40) | 100% | 100% | 100% | 100%
4 | Cc1cc(Oc2nsnc(Cl)c2=O)cc(C)c1Cl [Compound 59, 3-chloro-5-[(4-chloro-3,5-dimethyl)phenoxy]-4H--1,2,6-thiadiazin-4-one] | 2 (40-60) | 1 (10-40) | 1 (10-40) | 1 (10-40) | 48% | 52% | 57% | 57%
5 | CC(=O)c1ccc(Oc2nsnc(Cl)c2=O)cc1 [Compound 47, 3-(4-acetylphenoxy)-5-chloro-4H--1,2,6-thiadiazin-4-one] | 4 (80-100) | 4 (80-100) | 4 (80-100) | 1 (10-40) | 92% | 92% | 92% | 88%
6 | Cc1ccc(Oc2nsnc(Cl)c2=O)cc1 [Compound 3, 3-chloro-5-(4-methylphenoxy)-4H--1,2,6-thiadiazin-4-one] | 4 (80-100) | 4 (80-100) | 4 (80-100) | 1 (10-40) | 19% | 63% | 100% | 100%
7 | O=c1c(Cl)nsnc1Oc1c(Cl)cc(Cl)cc1Cl [Compound 30, 3-chloro-5-(2,4,6-trichlorophenoxy)-4H--1,2,6-thiadiazin-4-one] | 1 (10-40) | 0 (0-10) | 0 (0-10) | 0 (0-10) | 29% | 67% | 81% | 90%
8 | CC(=O)c1ccccc1Oc1nsnc(Cl)c1=O [Compound 49, 3-(2-acetylphenoxy)-5-chloro-4H--1,2,6-thiadiazin-4-one] | 4 (80-100) | 4 (80-100) | 2 (40-60) | 2 (40-60) | 100% | 100% | 100% | 100%
9 | O=c1c(Cl)nsnc1Oc1ccc(Cl)c(Cl)c1 [Compound 16, 3-chloro-5-(3,4-dichlorophenoxy)-4H--1,2,6-thiadiazin-4-one] | 4 (80-100) | 3 (60-80) | 1 (10-40) | 4 (80-100) | 38% | 50% | 56% | 50%
10 | COc1ccc(Cl)c(Oc2nsnc(Cl)c2=O)c1 [Compound 51, 3-chloro-5-[(2-chloro-5-methoxy)phenoxy]-4H--1,2,6-thiadiazin-4-one] | 4 (80-100) | 4 (80-100) | 0 (0-10) | 0 (0-10) | 52% | 75% | 81% | 90%
11 | CC(C)(C)c1ccc(Oc2nsnc(Cl)c2=O)cc1 [Compound 4, 3-chloro-5-(4-tert-butylphnoxy)-4H--1,2,6-thiadiazin-4-one] | 4 (80-100) | 3 (60-80) | 2 (40-60) | 0 (0-10) | 13% | 13% | 0% | 17%
12 | CCOC(=O)c1ccc(Oc2nsnc(Cl)c2=O)cc1 [Compound 7, 3-chloro-5-(4-ethoxycarbonylphenoxy)-4H--1,2,6-thiadiazin-4-one] | 4 (80-100) | 3 (60-80) | 2 (40-60) | 0 (0-10) | 54% | 75% | 75% | 92%
